Assay [1] addresses T1, PE-labeled human PD-L1-Ig binding to Jurkat cell line over-expressing human PD-1 (Jurkat-PD-1) (Homo sapiens, UniProt Q15116).
T1 construct: expressed in transfected cells; host or cells: Jurkat
Briefly: Jurkat-PD-1 Cell Binding High-Content Screening Assay (CBA): Method 2 (presence and absence of tween-20). Conditions: Jurkat-PD-1 cells, PE-labeled PD-L1-Ig 20 nM, presence or absence of tween-20 not given. The method, boiled down: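 Compounds incubated with Jurkat cells overexpressing human PD-1 for 2 h at 37° C, tested with and without tween-20 to flag aggregation. PE-labeled human PD-L1-Ig (20 nM final) added in DMEM/10% FCS; binding read by high-content imaging.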

Assay [2] concerns the target T1, PE-labeled human PD-L1-Ig binding to Jurkat cell line over-expressing human PD-1 (Jurkat-PD-1). Nature of the assay: Jurkat-PD-1 Cell Binding High-Content Screening Assay (CBA): Method 1. Conditions: Jurkat-PD-1 cells, PE-labeled PD-L1-Ig; μM; read-out: CBA Method 1 μM.
The mark [3] stands for this setting: head μM, read-out: CBA Method 2 μM.

Numbered stars: 1 amine (or outer) side, 2 acyl side, 3 side chain; on linkers, the order of the positions; unused ones are H or OH. Bridge positions count the residues as written; N and C are the ends. Square brackets hold non-standard residues; d marks the D form. Peptide text beside a SMILES is read from it. * marks the point of attachment. ξ: configuration not given here. Bip(4'-COOH) = N[C@@H](Cc1ccc(-c2ccc(C(=O)O)cc2)cc1)C(=O)O; Bip(4'-NHAc) = CC(=O)Nc1ccc(-c2ccc(C[C@H](N)C(=O)O)cc2)cc1; X14 = O=C(C[C@H](N[*:1])C(=O)[*:2])NS(=O)(=O)c1ccc(F)cc1; X2 = O=C(C[C@H](N[*:1])C(=O)[*:2])NS(=O)(=O)c1ccc(Cl)cc1; Phe(3-CF3) = N[C@@H](Cc1cccc(C(F)(F)F)c1)C(=O)O; Ala(morpholin-4-yl) = N[C@@H](CN1CCOCC1)C(=O)O; Phe(4-CONH2) = NC(=O)c1ccc(C[C@H](N)C(=O)O)cc1; Phe(4-COOH) = N[C@@H](Cc1ccc(C(=O)O)cc1)C(=O)O; Bip = N[C@@H](Cc1ccc(-c2ccccc2)cc1)C(=O)O; Phe(3-Me) = Cc1cccc(C[C@H](N)C(=O)O)c1; Val(3-OH) = CC(C)(O)[C@H](N)C(=O)O; X11 = CC(N)[C@H](N[*:1])C(=O)[*:2]; Cha = N[C@@H](CC1CCCCC1)C(=O)O; Thr(3ξ) = CC(O)[C@H](N)C(=O)O; Carboxymethyl = O=C(O)C*; NMeA = CN[C@@H](C)C(=O)O; Nle = CCCC[C@H](N)C(=O)O; Orn = NCCC[C@H](N)C(=O)O; Dab = NCC[C@H](N)C(=O)O

T1 sequence (Q15116 25-288): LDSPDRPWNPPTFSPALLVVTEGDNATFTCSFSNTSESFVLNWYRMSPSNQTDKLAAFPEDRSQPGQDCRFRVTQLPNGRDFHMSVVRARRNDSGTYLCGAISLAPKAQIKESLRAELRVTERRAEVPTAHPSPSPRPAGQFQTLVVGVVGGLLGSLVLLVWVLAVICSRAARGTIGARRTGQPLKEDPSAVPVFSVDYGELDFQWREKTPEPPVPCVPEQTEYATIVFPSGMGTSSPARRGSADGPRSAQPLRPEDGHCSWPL

As for `COC[C@@H]1NC(=O)CSC[C@@H](C(=O)N[C@@H](CCN)C(N)=O)NC(=O)[C@H](CCCN)NC(=O)[C@H](C(C)C)NC(=O)[C@H](CC2CCCCC2)NC(=O)[C@H](CCN)NC(=O)[C@@H](CC(C)C)NC(=O)[C@H](C)N(C)C(=O)[C@H](CCC(N)=O)NC(=O)[C@H](Cc2ccc(-c3ccccc3)cc2)NC(=O)[C@H](Cc2ccc(-c3ccc(C(=O)O)cc3)cc2)NC(=O)[C@H](Cc2cccc(C)c2)NC(=O)[C@H](CC(=O)O)NC(=O)[C@H](Cc2ccc(OCC(=O)O)cc2)NC1=O` [Example 5057] ({CH2CO}-S(Me)Y(Carboxymethyl)D[Phe(3-Me)][Bip(4'-COOH)][Bip]Q[NMeA][dL][Dab][Cha]V[Orn]C[Dab]-NH2; thioether N-14), the IC50 in assay [1] (setting [3]) was 0.0106 µM; in assay [2], 0.0089 µM.
As for `CCCC[C@@H]1NC(=O)CSC[C@@H](C(=O)N[C@@H](CCN)C(N)=O)NC(=O)[C@H](CC(N)=O)NC(=O)[C@H](C(C)C)NC(=O)[C@H](CC2CCCCC2)NC(=O)[C@H](CCN)NC(=O)[C@@H](CC(C)C)NC(=O)[C@H](C)N(C)C(=O)[C@H](CCCN)NC(=O)[C@H](Cc2ccc(-c3ccccc3)cc2)NC(=O)[C@H](Cc2ccc(-c3ccc(C(=O)O)cc3)cc2)NC(=O)[C@H](Cc2cccc(C(F)(F)F)c2)NC(=O)[C@H](CC(=O)O)NC(=O)[C@H](Cc2ccc(-c3ccc(C(=O)O)cc3)cc2)NC1=O` [Example 5090] ({CH2CO}-[Nle][Bip(4'-COOH)]D[Phe(3-CF3)][Bip(4'-COOH)][Bip][Orn][NMeA][dL][Dab][Cha]VNC[Dab]-NH2; thioether N-14), the IC50 in assay [1] (nM, read-out: CBA Method 2) is 0.0087 µM; in assay [2], 0.01 µM.
Consider `CC(=O)Nc1ccc(-c2ccc(C[C@@H]3NC(=O)[C@H](Cc4cccc(C)c4)NC(=O)[C@H](CC(=O)O)NC(=O)[C@H](Cc4ccc(OCC(=O)O)cc4)NC(=O)[C@H](C(C)O)NC(=O)CSC[C@@H](C(=O)N[C@@H](CCN)C(N)=O)NC(=O)[C@H](CO)NC(=O)[C@H](C(C)(C)O)NC(=O)[C@H](CC4CCCCC4)NC(=O)[C@H](CCN)NC(=O)[C@@H](CC(C)C)NC(=O)[C@H](C)N(C)C(=O)[C@H](Cc4ccc(C(N)=O)cc4)NC(=O)[C@H](Cc4ccc(-c5ccccc5)cc4)NC3=O)cc2)cc1` (stereo partly drawn) [Example 5071] ({CH2CO}-[Thr(3ξ)]Y(Carboxymethyl)D[Phe(3-Me)][Bip(4'-NHAc)][Bip][Phe(4-CONH2)][NMeA][dL][Dab][Cha][Val(3-OH)]SC[Dab]-NH2; thioether N-14), for which the IC50 in assay [1] (setting [3]) is 0.0261 µM; in assay [2], 0.0322 µM.
For `CC(C)C[C@H]1NC(=O)[C@H](C)N(C)C(=O)[C@H](CCC(N)=O)NC(=O)[C@H](Cc2ccc(-c3ccccc3)cc2)NC(=O)[C@H](Cc2ccc(C(=O)O)cc2)NC(=O)[C@H](Cc2cccc(C(F)(F)F)c2)NC(=O)[C@H](CC(=O)O)NC(=O)[C@H](Cc2ccc(OCC(=O)O)cc2)NC(=O)[C@H](CN2CCOCC2)NC(=O)CSC[C@@H](C(=O)N[C@@H](CCN)C(N)=O)NC(=O)[C@H](CCCN)NC(=O)[C@H](C(C)C)NC(=O)[C@H](CC2CCCCC2)NC(=O)[C@H](CCN)NC1=O` [Example 5014] ({CH2CO}-[Ala(morpholin-4-yl)]Y(Carboxymethyl)D[Phe(3-CF3)][Phe(4-COOH)][Bip]Q[NMeA][dL][Dab][Cha]V[Orn]C[Dab]-NH2; thioether N-14) the same measures were 0.04 µM and 0.17 µM.
The corresponding values for `Cc1cccc(C[C@@H]2NC(=O)[C@H](CC(=O)O)NC(=O)[C@H](Cc3ccc(OCC(=O)O)cc3)NC(=O)[C@H](C(C)N)NC(=O)CSC[C@@H](C(=O)N[C@@H](CCN)C(N)=O)NC(=O)[C@H](CO)NC(=O)[C@H](C(C)(C)O)NC(=O)[C@H](CC3CCCCC3)NC(=O)[C@H](CCN)NC(=O)[C@@H](CC(C)C)NC(=O)[C@H](C)N(C)C(=O)[C@H](Cc3ccc(C(N)=O)cc3)NC(=O)[C@H](Cc3ccc(-c4ccccc4)cc3)NC(=O)[C@H](Cc3ccc(OCC(=O)O)cc3)NC2=O)c1` (stereo partly drawn) [Example 5066] ({CH2CO}-[X11]Y(Carboxymethyl)D[Phe(3-Me)]Y(Carboxymethyl)[Bip][Phe(4-CONH2)][NMeA][dL][Dab][Cha][Val(3-OH)]SC[Dab]-NH2; thioether N-14) are 0.0028 µM and 0.0304 µM.
The corresponding values for `CC(C)C[C@H]1NC(=O)[C@H](C)N(C)C(=O)[C@H](CCC(N)=O)NC(=O)[C@H](Cc2ccc(-c3ccccc3)cc2)NC(=O)[C@H](Cc2ccc(C(=O)O)cc2)NC(=O)[C@H](Cc2cccc(C(F)(F)F)c2)NC(=O)[C@H](CC(=O)NS(=O)(=O)c2ccc(F)cc2)NC(=O)[C@H](Cc2ccc(C(=O)O)cc2)NC(=O)[C@H](CN2CCOCC2)NC(=O)CSC[C@@H](C(=O)N[C@@H](CCN)C(N)=O)NC(=O)[C@H](CCCN)NC(=O)[C@H](C(C)C)NC(=O)[C@H](CC2CCCCC2)NC(=O)[C@H](CCN)NC1=O` [Example 5079] ({CH2CO}-[Ala(morpholin-4-yl)][Phe(4-COOH)][X14][Phe(3-CF3)][Phe(4-COOH)][Bip]Q[NMeA][dL][Dab][Cha]V[Orn]C[Dab]-NH2; thioether N-14) are 0.229 µM and 0.138 µM.
Consider `CC(C)C[C@H]1NC(=O)[C@H](C)N(C)C(=O)[C@H](CCC(N)=O)NC(=O)[C@H](Cc2ccc(-c3ccccc3)cc2)NC(=O)[C@H](Cc2ccc(C(=O)O)cc2)NC(=O)[C@H](Cc2cccc(C(F)(F)F)c2)NC(=O)[C@H](CC(=O)NS(=O)(=O)c2ccc(Cl)cc2)NC(=O)[C@H](Cc2ccc(C(=O)O)cc2)NC(=O)[C@H](CN2CCOCC2)NC(=O)CSC[C@@H](C(=O)N[C@@H](CCN)C(N)=O)NC(=O)[C@H](CCCN)NC(=O)[C@H](C(C)C)NC(=O)[C@H](CC2CCCCC2)NC(=O)[C@H](CCN)NC1=O` [Example 5078] ({CH2CO}-[Ala(morpholin-4-yl)][Phe(4-COOH)][X2][Phe(3-CF3)][Phe(4-COOH)][Bip]Q[NMeA][dL][Dab][Cha]V[Orn]C[Dab]-NH2; thioether N-14), for which the figures for the IC50 in assay [1] (setting [3]) and in assay [2] were 0.264 µM and 0.533 µM, respectively.
For `CC(C)C[C@@H]1NC(=O)[C@H](Cc2c[nH]c3ccccc23)NC(=O)[C@H](CC(N)=O)NC(=O)[C@H](Cc2ccc(O)cc2)NC(=O)[C@H](Cc2ccccc2)NC(=O)CSC[C@@H](C(=O)NCC(N)=O)NC(=O)[C@H](CO)NC(=O)[C@H](C(C)C)NC(=O)[C@H](CC(C)C)NC(=O)[C@H](CC(N)=O)NC(=O)[C@@H](CC(C)C)NC(=O)[C@H](C)N(C)C(=O)[C@H](C(C)C)NC(=O)[C@H](Cc2ccc(-c3ccccc3)cc2)NC1=O` [Example 5025] ({CH2CO}-FYNWL[Bip]V[NMeA][dL]NLVSCG-NH2; thioether N-14) the same measures were 0.56 µM and 0.31 µM.
For `CC(=O)Nc1ccc(-c2ccc(C[C@@H]3NC(=O)[C@H](Cc4cccc(C)c4)NC(=O)[C@H](CC(=O)O)NC(=O)[C@H](Cc4ccc(C(=O)O)cc4)NC(=O)[C@H](CC(C)C)NC(=O)CSC[C@@H](C(=O)N[C@@H](CCN)C(N)=O)NC(=O)[C@H](CCCN)NC(=O)[C@H](C(C)C)NC(=O)[C@H](CC4CCCCC4)NC(=O)[C@H](CCN)NC(=O)[C@@H](CC(C)C)NC(=O)[C@H](C)N(C)C(=O)[C@H](CCC(N)=O)NC(=O)[C@H](Cc4ccc(-c5ccccc5)cc4)NC3=O)cc2)cc1` [Example 5054] ({CH2CO}-L[Phe(4-COOH)]D[Phe(3-Me)][Bip(4'-NHAc)][Bip]Q[NMeA][dL][Dab][Cha]V[Orn]C[Dab]-NH2; thioether N-14) the same measures were 0.0057 µM and 0.0053 µM.

Source of the values: patent US20240409585A1, “MACROCYCLIC IMMUNOMODULATORS” (priority 2021, published 2024).
